Test results published in BindingDB's records for doi:10.1021/acs.jmedchem.7b00306 (Bayer, 2017).

Target: T1, Bromodomain-containing protein 1 (Homo sapiens, UniProt O95696)
T1 sequence (O95696 whole entry): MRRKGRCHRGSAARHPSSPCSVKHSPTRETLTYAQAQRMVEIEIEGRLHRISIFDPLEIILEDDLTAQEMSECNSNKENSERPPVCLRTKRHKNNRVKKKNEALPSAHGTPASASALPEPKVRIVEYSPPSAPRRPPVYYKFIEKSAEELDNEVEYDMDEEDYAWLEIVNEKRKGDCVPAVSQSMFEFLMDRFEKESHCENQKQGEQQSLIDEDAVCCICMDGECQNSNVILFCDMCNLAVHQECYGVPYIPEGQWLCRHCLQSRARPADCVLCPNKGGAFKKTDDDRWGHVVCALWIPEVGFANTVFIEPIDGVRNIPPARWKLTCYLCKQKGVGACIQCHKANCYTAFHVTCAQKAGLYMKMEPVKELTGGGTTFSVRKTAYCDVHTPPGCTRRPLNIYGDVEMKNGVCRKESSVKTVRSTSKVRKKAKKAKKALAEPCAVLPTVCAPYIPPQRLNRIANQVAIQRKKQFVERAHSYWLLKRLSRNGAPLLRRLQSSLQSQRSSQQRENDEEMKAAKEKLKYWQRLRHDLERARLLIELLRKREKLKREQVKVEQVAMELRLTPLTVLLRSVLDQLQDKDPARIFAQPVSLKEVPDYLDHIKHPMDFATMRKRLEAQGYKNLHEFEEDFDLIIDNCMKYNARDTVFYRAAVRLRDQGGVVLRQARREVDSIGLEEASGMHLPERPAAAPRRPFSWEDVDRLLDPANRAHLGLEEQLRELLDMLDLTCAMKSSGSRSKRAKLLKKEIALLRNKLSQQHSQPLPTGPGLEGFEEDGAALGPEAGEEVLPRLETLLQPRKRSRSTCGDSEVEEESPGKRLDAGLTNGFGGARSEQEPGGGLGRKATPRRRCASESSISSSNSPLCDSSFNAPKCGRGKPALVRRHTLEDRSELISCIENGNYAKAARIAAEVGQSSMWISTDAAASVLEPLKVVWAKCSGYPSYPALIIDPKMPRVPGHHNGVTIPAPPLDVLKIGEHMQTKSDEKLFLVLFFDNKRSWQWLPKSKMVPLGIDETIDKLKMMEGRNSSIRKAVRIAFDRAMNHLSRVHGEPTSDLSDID
Assay: Alphascreen assay. Binding to BRD1A (domain start/stop: E556-A688) by alphascreen assay

IC50: 1680 nM
SMILES: COc1cc2c(cc1NS(=O)(=O)c1ccc(Br)cc1C)n(C)c(=O)n2C [OF-1]
